In brackets after ≈: the same amount, converted by molar mass. Several values for one entry are separate records, joined by “and”; a condition that tells them apart may be missing. Equal values may be shown once.
How the values were obtained:
[1] = test system: MCF-10A breast epithelial cells; test: Cell viability assay (MTT); assay type: cell-based, human; conditions: MCF10A
Text: (§1) Rat cardiomyocyte H9c2 cells were kindly provided by Prof. Dr. Gunhild von Amsberg from the Martini-Klinik Prostate Cancer Center, University Hospital Hamburg-Eppendorf, Hamburg, Germany. The human HaCaT keratinocyte cell line was kindly provided by Prof. N. Fusenig (Cancer Research Centre, Heidelberg, Germany). Non-cancerous human breast epithelial MCF-10A cells were kindly provided by Dr. Irina Zhitnyak (N. N. Blokhin National Medical Research Center of Oncology, Moscow, Russia). Human breast cancer MCF-7 HTB-22 and MDA-MB-231 cells were obtained from the ATTC (Manassas, VA, USA).
(§2) H9c2 and HaCaT cells were cultured in DMEM with 10% fetal bovine serum and 1% penicillin/streptomycin (BioloT, St. Petersburg, Russia). MCF-7 and MDA-MB-231 cells were cultured in MEM (BioloT, St. Petersburg, Russia) with 10% fetal bovine serum (FBS) and 1% penicillin/streptomycin (BioloT, St. Petersburg, Russia). MCF 10A cells were cultured in DMEM F12 medium (BioloT, St. Petersburg, Russia) supplemented with 20% FBS, 20 ng/mL hrEGF (Sci-Store, Moscow, Russia), and 1% penicillin/streptomycin (BioloT, St. Petersburg, Russia). All cells were cultured at 37 °C in a humidified atmosphere containing 5% CO2.
(§3) H9c2 cells were seeded at a concentration of 3 × 10^3 cells/well. MCF-10A, MCF-7, and MDA-MB-231 cells were seeded at 5 × 10^3 cells/well, and HaCaT cells were seeded at 1 × 10^4 cells/well. The experiments were initiated after 24 h.
(§4) Compounds at concentrations up to 100 µM were added to the wells for 24h or 48 h, and the viability of the cells was measured using an MTT (3-(4,5-dimethylthiazol-2-yl)-2,5-diphenyltetrazolium bromide) assay, which was performed according to the manufacturer’s instructions (Sigma-Aldrich, Munich, Germany). […] DMSO was used as a control. The results are presented as percentages of the control data.

[2] = test system: HaCaT keratinocytes; test: Cell viability assay (MTT); assay type: cell-based, human
Text: as §1, §2, §3, §4

[3] = test system: MCF-7 breast cancer cells; test: Cell viability assay (MTT); assay type: cell-based, human
Text: as §1, §2, §3, §4

[4] = test system: MDA-MB-231 breast cancer cells; test: Cell viability assay (MTT); assay type: cell-based, human
Text: as §1, §2, §3, §4

[5] = test system: H9c2 cardiomyocytes; test: Cell viability assay (MTT); assay type: cell-based, rat
Text: as §1, §2, §3, §4

[6] = test system: Candida albicans KMM 455; test: Biofilm formation assay (MTT); assay type: cell-based; conditions: C. albicans, 18 h
Description: (§5) The Gram-positive bacterial Staphylococcus aureus ATCC 21027, Gram-negative bacterial Escherichia coli VKPM (B-7935), and yeast-like fungal Candida albicans KMM 455 strains were fermented on solid medium Mueller Hinton broth with agar (16.0 g/L) in a Petri dish at 37 °C for 24 h. The antimicrobial activity of the compound was tested at concentrations ranging from 100 µM and lower. The effect of the compound on bacterial growth was estimated as described by. Gentamicin and amphotericin B were used as positive controls against S. aureus, E. coli, and C. albicans, and a 1% dimethyl sulfoxide (DMSO) solution in PBS was used as a negative control. The optical density of the bacterial suspension after 18 h was measured at λ = 620 nm. The effect of the compound on biofilm formation for 18 h was tested using MTT reagent (Sigma-Aldrich, St. Louis, MO, USA) in accordance with. The optical density of the obtained solution was measured at λ = 570 nm. A Multiskan FS spectrophotometer (Thermo Scientific Inc., Beverly, MA, USA) was used for both assays. The results were calculated as percentages of the control data and presented as minimal concentrations reduced by 50% of growth or biofilm formation (MIC50).

[7] = test system: Escherichia coli VKPM (B-7935); test: Biofilm formation assay (MTT); assay type: cell-based; conditions: E. coli, 18 h
Description: as §5

[8] = test system: Staphylococcus aureus ATCC 21027; test: Biofilm formation assay (MTT); assay type: cell-based; conditions: S. aureus, 18 h
Description: as §5

[9] = test system: Candida albicans KMM 455; test: Antimicrobial assay, growth inhibition (optical density); assay type: cell-based; conditions: Candida albicans, KMM455, 18 h, C. albicans, 18 h
Description: as §5

[10] = test system: Escherichia coli VKPM (B-7935); test: as above; assay type: cell-based; conditions: E. coli, 18 h
Description: as §5

[11] = test system: Staphylococcus aureus ATCC 21027; test: as above; assay type: cell-based; conditions: S. aureus, 18 h
Description: as §5

SMILES: Cc1c(C)c(O)c2c(c1C)C(C)(O)OC2=O (stereo not shown) [Compound 3, sclerolide]
- IC50 ([1]; Homo sapiens, MCF-10A, time not stated, read-out: half-maximal concentration (IC50), viability): ~100 µM
- cell viability ([1]; 24 h, 1.0 µM): 101.7 ± 1.3 % of control
- cell viability ([1]; 24 h, 10.0 µM): 92.2 ± 3.5 % of control
- cell viability ([1]; 24 h, 100.0 µM): 62.5 ± 2.2 % of control
- cell viability ([1]; 48 h, 1.0 µM): 101.6 ± 5.1 % of control
- cell viability ([1]; 48 h, 10.0 µM): 74.4 ± 2.4 % of control
- cell viability ([1]; 48 h, 100.0 µM): 47.5 ± 7.0 % of control
- cell viability ([2]; 24 h, 1.0 µM): 94.4 ± 5.9 % of control
- cell viability ([2]; 24 h, 10.0 µM): 100.2 ± 3.0 % of control
- cell viability ([2]; 24 h, 100.0 µM): 63.0 ± 8.6 % of control
- cell viability ([2]; 48 h, 1.0 µM): 96.8 ± 1.0 % of control
- cell viability ([2]; 48 h, 10.0 µM): 96.6 ± 4.1 % of control
- cell viability ([2]; 48 h, 100.0 µM): 69.4 ± 3.5 % of control
- decrease of viability ([2]; at 100 µM, range given for H9c2 and HaCaT together): 30.0–37.5%
- cell viability ([3]; MCF-7, 24 h, 1.0 µM): 107.2 ± 8.9 % of control
- cell viability ([3]; MCF-7, 24 h, 10.0 µM): 95.6 ± 2.4 % of control
- cell viability ([3]; MCF-7, 24 h, 100.0 µM): 70.2 ±5.5 % of control
- cell viability ([3]; MCF-7, 48 h, 1.0 µM): 83.8 ± 3.1 % of control
- cell viability ([3]; MCF-7, 48 h, 10.0 µM): 76.0 ± 2.6 % of control
- cell viability ([3]; MCF-7, 48 h, 100.0 µM): 55.1 ± 1.0 % of control
- cell viability ([4]; MDA-MB-231, 24 h, 1.0 µM): 99.8 ± 1.3 % of control
- cell viability ([4]; MDA-MB-231, 24 h, 10.0 µM): 100.6 ± 5.7 % of control
- cell viability ([4]; MDA-MB-231, 24 h, 100.0 µM): 68.6 ± 8.3 % of control
- cell viability ([4]; MDA-MB-231, 48 h, 1.0 µM): 107.6 ± 2.8 % of control
- cell viability ([4]; MDA-MB-231, 48 h, 10.0 µM): 99.0 ± 5.1 % of control
- cell viability ([4]; MDA-MB-231, 48 h, 100.0 µM): 60.9 ± 3.6 % of control
- cell viability ([5]; H9c2, 24 h, 1.0 µM): 81.1 ± 3.2 % of control
- cell viability ([5]; H9c2, 24 h, 10.0 µM): 88.7 ± 4.4 % of control
- cell viability ([5]; H9c2, 24 h, 100.0 µM): 74.6 ± 8.3 % of control
- cell viability ([5]; H9c2, 48 h, 1.0 µM): 102.0 ± 5.5 % of control
- cell viability ([5]; H9c2, 48 h, 10.0 µM): 102.7 ± 6.7 % of control
- cell viability ([5]; H9c2, 48 h, 100.0 µM): 62.5 ± 4.6 % of control
- decrease of viability ([5]; H9c2, at 100 µM, range given for H9c2 and HaCaT together): 30.0–37.5%
- Biofilm formation, MIC50 [6]: >100 µM
- Biofilm formation, MIC50 [7]: 43.51 µM and 43.51 ± 4.03 µM
- Biofilm formation, MIC50 [8]: 31.14 µM and 31.14 ± 2.34 µM
- MIC50 [9]: > 100 µM
- Growth inhibition, MIC50 [10]: 21.07 ± 2.11 µM
- MIC50 ([10]; Escherichia coli): 21.1 µM (≈ 4.68 µg/mL)
- Growth inhibition, MIC50 [11]: 20.34 ± 2.58 µM
- MIC50 ([11]; Staphylococcus aureus, ATCC21027, 18 h): 20.3 µM (≈ 4.52 µg/mL)

SMILES: C[C@@H]1[C@H](O)[C@@H](C)/C=C/C=C/C=C/C=C/C=C/C=C/C=C/[C@H](O[C@@H]2O[C@H](C)[C@@H](O)[C@H](N)[C@@H]2O)C[C@@H]2O[C@](O)(C[C@@H](O)C[C@@H](O)[C@H](O)CC[C@@H](O)C[C@@H](O)CC(=O)O[C@H]1C)C[C@H](O)[C@H]2C(=O)O [Amphotericin B, reference compound]
- Biofilm formation, MIC50 [6]: 1.38 ± 0.14 µM
- MIC50 [9]: 1.18 ± 0.15 µM (≈ 1.09 µg/mL)
